Where two headings read alike, the source gives them in different places.

The text below walks through data of patent US6827926B2, “Metallotetrapyrrolic photosensitizing agents for use in photodynamic therapy” (Miravant Pharmaceuticals, Inc., priority 2001, dated 2004).

Assay [1] has as its system normal uninjured rat carotid arteries (medial and adventitial cell populations). Nature of the assay: In vivo rat carotid artery acellularity after PDT. More on the design: species or system Sprague Dawley rats. The note with it: for efficacy of free base porphyrins in the arterial rat model: at the time point, drug and light dose parameters used; for Max % rat Artery Accelularity: Table 3, 50 J/cm^2, 3 days post treatment. The method, then: The acute effects of metallated photosensitizers, in response to light activation, to cause depletion of cell populations in the medial and adventitial layers of vessels was measured in normal uninjured rat carotid arteries. […] Shortly before the light treatment, the rats were anaesthetized with 3.5% isoflurane (Abbott Laboratories, IL, USA) and the femoral region of the right leg was shaved and cleaned. […] A direct arteriotomy was performed and a light balloon catheter ([…] Medical Technologies, Inc) was introduced into the vessel and advanced retrogradely into a non-manipulated region of the left common carotid artery via the abdominal aorta. […] After light treatment and removal of the catheter, the right femoral artery was tied off and the skin wound was closed. Rats were sacrificed three days post treatment as this corresponds to the known peak time that vascular cells, e.g., VSMC and myofibroblasts, proliferate and migrate in response to an injury. The area spanning both left and right carotid arteries and surrounding tissue was harvested, fixed, embedded in paraffin and sectioned. The tissues were stained with Hematoxylin and Eosin (Fisher Scientific, PA) and examined by light microscopy to histologically assess the cell population density in the medial and adventitial layers of the PDT-treated vessel wall. […] Metallo azaporphyrins with Ga, Zn, Al, Sn were excited at 575 nm, while Pt azaporphyrins were excited at 532 nm.

Assay [2] concerns V79 (Chinese Hamster Lung Fibroblasts) cells. Nature of the assay: In vitro cytotoxicity assay (light EC50, Alamar blue). It is filed as cell-based. The method, then:
The in vitro biological evaluation of photosensitizers for their ability to photosensitize cells was performed using standard procedures. Using 5% FBS/DMEM phenol-free media, wells (180 μl/well) were plated with 5×10^4 V79 (Chinese Hamster Lung Fibroblasts) cells/ml into two 96 well plates. Plate 1 was light-treated and plate 2 served as a control. The plates were Incubated at 37° C., 5% CO2 for 3-5 hours. Standard solutions of the photosensitizers were dissolved in pre-filtered Dimethyl Sulfoxide (DMSO). Drug was diluted in 5% FBS DMEM phenol free medium. Final drug concentrations for light and dark experiments were 0.01, 0.1, 1.0, 3.0 and 5.0 μM. Twenty microliters of each concentration were added to six replicate wells to the light and dark plate. The plates were wrapped in aluminum foil to avoid photoactivation and mixed in a gyratory shaker for approximately 2 minutes. Both plates were incubated for 24 hours at 37° C., 5% CO2. After a 24 hour incubation, drug-containing media was aspirated from the plates. Each well was rinsed with 180 μl Hepes buffer salt solution (HBSS) then aspirated to remove the HBSS. 180 μl of fresh media were added (5% FBS/DMEM phenol-free) to each well. […] Plate 2 was not light treated. Immediately after light treatment, 20 μl Alamar blue was added to each well in plate 1. Alamar blue was added to plate 2 immediately after fresh media was added. The plates were mixed on a gyratory shaker for 5 min.
Both plates were incubated under dark conditions for 24 hours at 37° C., 5% CO2. After 24 hour incubation, the plates were read on a plate reader spectrophotometer (Spectra Max 250) at wavelengths 570 and 600 nm. and the percentage of cell survival recorded.

Setting [3] is: Table 3 porphyrins, 24 h drug incubation, 532 nm, 1.25 J/cm^2, read-out: In Vitro EC50 Light.
Setting [4] is: Table 4 azaporphyrins, 575 nm (Pt azaporphyrins 532 nm), 1.25 J/cm^2, read-out: In Vitro EC(50).

With `CCOC(=O)CCCCC1=C(C)c2cc3[nH]c(cc4nc(cc5[nH]c(cc1n2)c(CCCCC(=O)OCC)c5C)C(CC)=C4C)c(CC)c3C` [metal-free analog of compound 28, 8,13-diethyl-3,7,12,17-tetramethylporphyrin-2,18-di(pentanoic acid ethyl ester)], in assay [1], the “efficacy of free base porphyrins in the arterial rat model” value (“efficacy of free base porphyrins” for short) was “poor efficacy”.

Take `CCC1=C(C)c2cc3[nH]c(cc4nc(cc5[nH]c(cc1n2)c(C)c5CC)C(C)=C4CCCC(=O)OC)c(CCCC(=O)OC)c3C` [metal-free analog of compound 26, 8,13-diethyl-3,7,12,17-tetramethylporphyrin-2,18-di(butanoic acid methyl ester)]: the “efficacy of free base porphyrins” value in assay [1] is recorded as “poor efficacy”.

For the compound `C=CC1=C(C)c2cc3[n-]c(cc4nc(cc5[n-]c(cc1n2)c(C)c5CCC(=O)[O-])C(CCC(=O)[O-])=C4C)c(C)c3C=C.[In+3].[Na+].[Na+].[OH-]` [Example 112, Indium Hydroxy Protoporphyrin Disodium Salt], the EC50 in assay [2] (setting [3]) came to 1500 nM. Besides, the “Max % rat Artery Accelularity” value in assay [1] (drug dose 1 μMol) came out at 0%.

Take `CCC1=C(C)c2cc3[n-]c(cc4nc(cc5[n-]c(cc1n2)c(C)c5CC)C(C)=C4CCC(=O)[O-])c(CCC(=O)[O-])c3C.[In+3].[Na+].[Na+].[OH-]` [Example 110, Indium Hydroxy Mesoporphyrin Disodium Salt]: the EC50 in assay [2] (setting [3]) turned out to be 1000 nM. Moreover, the “Max % rat Artery Accelularity” value in assay [1] (drug dose 1 μMol) turned out to be 0%.

Consider “Aluminum Chloride 8,13-diethyl-3,7,12,17-tetramethylporphyrin-2,18-di(butanoic acid methyl ester) [Example 48]”, for which the EC50 in assay [2] (setting [3]) worked out at 4000 nM. For the same compound, in assay [1] (drug dose 1 μMol), the “Max % rat Artery Accelularity” value came to 0%.

Take “Zinc 8,13-diethyl-3,7,12,17-tetramethylporphyrin-2,18-di(butanoic acid methyl ester) [Example 49]”: in assay [2] (setting [3]), the EC50 is 4000 nM. For the same compound, the “Max % rat Artery Accelularity” value in assay [1] (drug dose 1 μMol) was determined as 0%.

On to `CCOC(=O)CCCCC1=C(C)c2cc3[nH]c(cc4nc(cc5[nH]c(cc1n2)c(CCCCC(=O)OCC)c5C)C(C)=C4CC)c(C)c3CC.[Pt]` [Example 53, Platinum 8,13-diethyl-3,7,12,17-tetramethylporphyrin-2,18-di(pentanoic acid ethyl ester)], for which the EC50 in assay [2] (setting [3]) was determined as 100 nM. In addition, in assay [1] (drug dose 1 μMol), the “Max % rat Artery Accelularity” value is recorded as 20%.

Consider `CCC1=C(C)C2=[N+]3C1=Cc1c(C)c(CC)c4[n]1[Al-2]31([Cl])[n]3c(c(C)c(CCCO)c3=CC3=[N+]1C(=C4)C(C)=C3CCCO)=C2` [Example 73, Aluminum Chloride 8,13-diethyl-3,7,12,17-tetramethylporphyrin-2,18-di(3′-hydroxypropyl)], for which the EC50 in assay [2] (setting [3]) turned out to be 3600 nM. Besides, in assay [1] (drug dose 1 μMol), the “Max % rat Artery Accelularity” value is 0%.

For `CC1=C(CCC(=O)[O-])c2cc3[n-]c(cc4nc(cc5[n-]c(cc1n2)c(CCC(=O)[O-])c5C)C(C)=C4CCC(=O)[O-])c(CCC(=O)[O-])c3C.[In+3].[Na+].[Na+].[Na+].[Na+].[OH-]` [Example 113, Indium Hydroxy Coproporphyrin III Tetra Sodium Salt], the EC50 in assay [2] (setting [3]) came out at 3600 nM. In addition, the “Max % rat Artery Accelularity” value in assay [1] (drug dose 1 μMol) was 0%.

As for `CCC1=C(C)C2=Cc3c(CC)c(C)c4[n]3[Pt][n]3c(c(C)c(CCC(=O)[O-])c3=CC3=NC(=C4)C(C)=C3CCC(=O)[O-])=CC1=N2.[Na+].[Na+]` [Example 111, Platinum Mesoporphyrin Disodium Salt], the EC50 in assay [2] (setting [3]) was 700 nM. In assay [1] (drug dose 1 μMol), the “Max % rat Artery Accelularity” value is 0%.

`CCC1=C(C)c2cc3[nH]c(cc4nc(cc5[nH]c(cc1n2)c(C)c5CCC(=O)OC)C(CCC(=O)OC)=C4C)c(C)c3CC` [mesoporphyrin dimethyl ester, reference compound]: the “efficacy of free base porphyrins” value in assay [1] is given as “poor efficacy”.

For the compound “Gallium Chloride 8,13-diethyl-3,7,12,17-tetramethylporphyrin-2,18-di(butanoic acid methyl ester) [Example 26]”, the EC50 in assay [2] (setting [3]) worked out at 370 nM. The “Max % rat Artery Accelularity” value in assay [1] (drug dose 1 μMol) worked out at 75%.

For the compound `CCC1=C(C)c2nc1cc1[n-]c(cc3nc(cc4[n-]c(n2)c(C)c4CCC(=O)NCCCO)C(CCC(=O)NCCCO)=C3C)c(CC)c1C.[Cl-].[Ga+3]` [Example 99, Gallium Chloride 5-azamesoporphyrin IX di(3′-hydroxypropyl amide)], the EC50 in assay [2] (setting [4]) turned out to be 500 nM.

As for `CCC1=C(C)C2=[N+]3C1=Cc1c(C)c(CC)c4[n]1[Pt-2]31[n]3c(c(C)c(CCC(=O)NCCOC)c3=CC3=[N+]1C(=C4)C(C)=C3CCC(=O)NCCOC)=C2` (centres unmarked) [Example 65, Platinum Mesoporphyrin di(2-methoxyethylamide)], the EC50 in assay [2] (setting [3]) came to 50 nM.

Turning to “Gallium Chloride 7,8,12,13-tetraethyl-12,17-dimethyl-10-azaporphyrin-2,18-di(3′-hydroxypropyl) [Example 23]”, the EC50 in assay [2] (setting [4]) was found to be 50 nM. In addition, the “Max % Rat Artery Accelularity” value in assay [1] (Table 4, drug dose 1 μMol, 575 nm (Pt 532 nm)) was determined as 50%.

For the compound `CCC1=C(CC)C2=[N+]3C1=Nc1c(CC)c(CC)c4[n]1[Pt-2]31[n]3c(c(CC)c(CC)c3=C2c2ccc(OC)cc2)=NC2=[N+]1C(=C4c1ccc(OC)cc1)C(CC)=C2CC` (centres unmarked) [M=Pt, R1=Et, R2=Et, R3=p-(C6H4)OCH3], the EC50 in assay [2] (light EC50, metallodiazaporphyrins, read-out: In Vitro EC(50)) is 300 nM.

`CCC1=C(CC)C2=Nc3c(CC)c(CC)c4[n]3[Pt][n]3c(c(C)c(CCC(=O)NCCN(C)C)c3=CC3=NC(=C4)C(C)=C3CCC(=O)NCCN(C)C)=CC1=N2` [Example 103, Platinum 7,8,12,13-tetraethyl-12,17-dimethyl-10-azaporphyrin-2,18-di(propionic acid-2′-N,N-dimethylaminoethyl amide)]: the EC50 in assay [2] (setting [4]) was determined as 1200 nM.

With `CCC1=C(CC)C2=Nc3c(CC)c(CC)c4[n]3[Al]([Cl])[n]3c(c(C)c(CCC(=O)NC)c3=CC3=NC(=C4)C(C)=C3CCC(=O)NC)=CC1=N2` [Example 93, Aluminum Chloride 7,8,12,13-tetraethyl-12,17-dimethyl-10-azaporphyrin-2,18-di(propionic acid methyl amide)], the EC50 in assay [2] (setting [4]) was 100 nM.

Turning to `CCC1=C(CC)C2=Nc3c(CC)c(CC)c4[n]3[Pt][n]3c(c(C)c(CCC(=O)NC)c3=CC3=NC(=C4)C(C)=C3CCC(=O)NC)=CC1=N2` [Example 92, Platinum 7,8,12,13-tetraethyl-12,17-dimethyl-10-azaporphyrin-2,18-di(propionic acid methyl amide)], the EC50 in assay [2] (setting [4]) came to 2300 nM.
